In US8071640B2, “Urea oligomers, their preparation process and pharmaceutical compositions containing them” (Centre National de la Recherche Scientifique, priority 2001, dated 2011):
Like-named read-outs stand apart in the source and are kept apart here.

Columns and labels:
erythrocytes = assay: Hemolysis test; type: cell-based, monkey (macaque); details: 100 μg per ml of suspension (positive control); macaque erythrocytes, one hour at 37° C.
Description: A compound acting on the membranes of bacteria can potentially disturb the membranes of mammalian cells. The red blood cells or erythrocytes serves as a model of eukaryotic cells where the degree of membrane permeation is easily evaluated by measuring the quantity of hemoglobin released through the pores of the embrittled membranes and the concentration of which is directly proportional to the optical density at 450 nm.
The erythrocytes are prepared from freshly sampled monkey blood (macaque). The heparinized blood is centrifuged and washed three times with cold PBS and resuspended at 10% (v/v) in PBS. 10 μl of an aqueous solution of the products to be tested are added to 90 μl of suspension of red blood cells. The erythrocytes are incubated for one hour at 37° C. The suspension is centrifuged in order to recover the supernatant which is more or less red depending on the degree of hemolysis. The concentration of hemoglobin released in the supernatant is measured by the optical density at 450 nm. In the negative control the red blood cells are incubated in the absence of product and show an OD of 0.100% hemolysis is obtained with 100 μg cetylpyridinium chloride per ml of suspension. The degree of hemolysis is evaluated with respect to the positive control for the different concentrations of the products tested.

Neurospora crassa = type: cell-based
Description: (§1) The compounds tested all form part of the polyurea class and were obtained in the laboratory by chemical route. Tests for the inhibition of the growth of bacteria and fungi were carried out in liquid tests. The specific activity of each molecule is expressed by the minimal inhibitory concentration on the growth of the bacteria and/or fungi, called MIC. The MIC is a value specific to each compound and varies as a function of the organisms tested. It should be noted that the MIC values follow a logarithmic progression, which is due to a two-by-two dilution of the compounds tested in a series of tests. The molecules tested were presented in the form of salts which are soluble in water and thus the culture medium of the microorganisms. The antifungal tests are carried out in similar fashion with ½ PDB (Potato dextrose broth, Difco) as culture medium and 10,000 spores per ml of culture. An optical control under a reverse microscope is necessary in the case of the fungi in order to evaluate the formation of the mycelia of the filamentous fungi (Aspergillus fumigatus, Neurospora crassa). The CMC is determined after culture for 48 hours at 29° C. and corresponds to the concentration where no formation of mycelium is observed.

Aspergillus fumigatus = type: cell-based
Description: as §1

Pseudomonas aeruginosa = type: cell-based
Description: (§2) The compounds tested all form part of the polyurea class and were obtained in the laboratory by chemical route. Tests for the inhibition of the growth of bacteria and fungi were carried out in liquid tests. The specific activity of each molecule is expressed by the minimal inhibitory concentration on the growth of the bacteria and/or fungi, called MIC. The MIC is a value specific to each compound and varies as a function of the organisms tested. It should be noted that the MIC values follow a logarithmic progression, which is due to a two-by-two dilution of the compounds tested in a series of tests. The molecules tested were presented in the form of salts which are soluble in water and thus the culture medium of the microorganisms.
(§3) For carrying out the tests, 96-well plates were used. Each well contains 90 μl of a suspension of bacteria diluted in PB medium (Poor Broth, Difco) in order to have a final concentration of 1 mOD. 10 μl of compound in solution in sterile water at concentrations ranging from 1 mg/ml to 2 μg/ml are added to the tests. The plates are placed under stirring at 29° C. for 24 hours. The growth of the bacteria is measured by measuring the turbidity of the culture medium and measuring the OD at 595 nm. The value of the MIC corresponds to the concentration of the substances to be tested where no growth of bacteria is noted (OD=0).

Staphylococcus aureus = type: cell-based; details: 24 h
Description: as §2, §3

E. coli D363 = type: cell-based
Description: as §2, §3

Salmonella cloacae = type: cell-based
Description: as §2, §3

Micrococcus luteus = type: cell-based
Description: as §2, §3

Row | Molecule | hemolysis (erythrocytes) [%] | Minimum inhibitory concentration (Neurospora crassa; 48 h) [µM] | Minimum inhibitory concentration (Neurospora crassa; Neurospora crassa, ½ PDB, 10,000 spores per ml, 48 hours at 29° C.) [µg/mL] | Minimum inhibitory concentration (Aspergillus fumigatus; 48 h) [µM] | Minimum inhibitory concentration (Aspergillus fumigatus; Aspergillus fumigatus, ½ PDB, 10,000 spores per ml, 48 hours at 29° C.) [µg/mL] | Minimum inhibitory concentration (Pseudomonas aeruginosa; 24 h) [µM] | Minimum inhibitory concentration (Pseudomonas aeruginosa; Pseudomonas aeruginosa, PB medium, 24 hours at 29° C.) [µg/mL] | Minimum inhibitory concentration (Staphylococcus aureus) [µg/mL] | Minimum inhibitory concentration (E. coli D363; D363, 24 h) [µM] | Minimum inhibitory concentration (E. coli D363; E. coli D363, PB medium, 24 hours at 29° C.) [µg/mL] | Minimum inhibitory concentration (Salmonella cloacae; 24 h) [µM] | Minimum inhibitory concentration (Salmonella cloacae; Salmonella cloacae, PB medium, 24 hours at 29° C.) [µg/mL] | Minimum inhibitory concentration (Micrococcus luteus; 24 h) [µM] | Minimum inhibitory concentration (Micrococcus luteus; Micrococcus luteus, PB medium, 24 hours at 29° C.) [µg/mL]
1 | CCCCCCCCCCCCCCCC[n+]1ccccc1 [cetylpyridinium chloride] | 100 | – | – | – | – | – | – | – | – | – | – | – | – | –
2 | H-YLVFKAVY-NH2 [Peptide L (control), H-Tyr-Leu-Val-Phe-Lys-Ala-Val-Tyr-NH2] | – | 20 | 30 | 82 | 121 | 82 | 121 | >121 | 2.6 | 3.8 | 2.6 | 3.8 | 2.6 | 3.8
